# Patent US10584157B2 (priority 2015, dated 2020)
# pKd: −log10 of the molar value. “And” between values parts separate entries of the source, which are not always exact repeats. Equal values may be shown once. “Also recorded” adds a separate entry of the source. Read-outs that look alike come from different tables or passages of the source. Square brackets hold non-standard residues; d marks the D form. Ends that are not written are not given here. Peptide text beside a SMILES is read from it.
# Tests used:
# [1] = tested on: cell-surface CD28; type: binding
# cell-surface CD28, sequence (P01552 28-266 limits assumed): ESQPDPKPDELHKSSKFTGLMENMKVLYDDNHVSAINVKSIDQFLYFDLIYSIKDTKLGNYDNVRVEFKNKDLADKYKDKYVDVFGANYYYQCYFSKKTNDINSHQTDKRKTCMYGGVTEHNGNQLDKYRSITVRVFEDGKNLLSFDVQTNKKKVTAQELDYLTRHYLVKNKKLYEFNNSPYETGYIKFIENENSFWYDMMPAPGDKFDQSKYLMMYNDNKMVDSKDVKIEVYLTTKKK
# [2] = tested on: cell-surface B7-2; type: binding, human
# cell-surface B7-2, sequence (P01552 28-266 limits assumed): as above
# [3] = target: cell-surface CD28 (Staphylococcus aureus, UniProt P01552); conditions: cited from earlier work
# cell-surface CD28 (Staphylococcus aureus, UniProt P01552), sequence (P01552 28-266 limits assumed): as above
# [4] = tested on: SEB lethality in D-galactosamine-sensitized mice; type: in vivo, BALB/c mice
# [5] = tested on: PBMC induced with αCD3/αCD28; type: cell-based, human
# [6] = tested on: PBMC induced with SEB; type: cell-based, human
# [7] = tested on: PBMC induced with E. coli LPS; type: cell-based, human
# [8] = tested on: SMEZ; type: binding, Streptococcus pyogenes
# [9] = target: SEB (Staphylococcus aureus, UniProt P01552); test: biochemical; type: binding, S. aureus; conditions: for kon: read-out: Ka (1/Ms), association rate; for koff: read-out: Kd (1/s), dissociation rate
# SEB, sequence (P01552 28-266 limits assumed): as above
# [10] = target: TSST-1 (Staphylococcus aureus, UniProt P06886); test: biochemical; type: binding, S. aureus; conditions: for kon: read-out: Ka (1/Ms), association rate; for koff: read-out: Kd (1/s), dissociation rate
# TSST-1, sequence (P06886 41-234 limits assumed): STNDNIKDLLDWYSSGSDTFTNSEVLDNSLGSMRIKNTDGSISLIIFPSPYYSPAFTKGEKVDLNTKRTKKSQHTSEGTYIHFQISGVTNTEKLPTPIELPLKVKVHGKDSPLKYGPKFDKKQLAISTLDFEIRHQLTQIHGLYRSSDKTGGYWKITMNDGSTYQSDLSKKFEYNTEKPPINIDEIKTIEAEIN
# [11] = tested on: PBMC induced with αCD3; type: cell-based, human
compound,measurement,setting,value
"SPMLVAYD [p2TA, reference compound]",blocking of binding of SEB to cell-surface CD28,[1],capable of blocking
same,inhibition of binding of SEB to cells expressing B7-2,[2],equally inhibited
same,blocking of binding of SEB to cell-surface CD28,[3],abrogated
[dA]EKFDSVHSKYM[dA] [D-Ala-pB2-4],blocking of binding of SEB to cell-surface CD28,[1],capable of blocking
same,survival of SEB challenge (mice surviving/group),[4]; n=5,4/5
same,"inhibition of CD28 signaling, IFN-γ induced by αCD3/αCD28",[5],inhibition
same,"inhibition of CD28 signaling, TNF-α induced by αCD3/αCD28",[5],inhibition
same,inhibition of binding of SEB to cells expressing B7-2,[2],effectively blocked
same,effect on SEB-mediated induction of IL-10,[6],resistant
same,inhibition of SEB-mediated induction of IFN-γ,[6],strongly inhibitory
same,inhibition of SEB-mediated induction of IL-2,[6],inhibited
same,inhibition of SEB-mediated induction of TNF-α,[6],inhibited
same,attenuation of LPS-mediated induction of TNF-α,[7],sensitive to attenuation; also recorded: reduced
[dA]HHKKPTGMIR[dA] [D-Ala-pB2-3],inhibition of SEB-mediated induction of IFN-γ,[6],failed to inhibit
CSCC[C@H](NC(=O)[C@H](Cc1ccc(O)cc1)NC(=O)[C@H](CCCCN)NC(=O)[C@H](CO)NC(=O)[C@H](Cc1c[nH]cn1)NC(=O)[C@@H](NC(=O)[C@H](CO)NC(=O)[C@H](CC(=O)O)NC(=O)[C@H](Cc1ccccc1)NC(=O)[C@H](CCCCN)NC(=O)[C@@H](N)CCC(=O)O)C(C)C)C(=O)O [pB2-4] (H-EKFDSVHSKYM-OH; N-terminus and C-terminus assumed),"Ka (1/Ms), association rate",[8],"3,020 1/Ms"
same,"Kd (1/s), dissociation rate",[8],0.00293 s⁻¹
same,kon,[9],413 M⁻¹ s⁻¹
same,koff,[9],0.000958 s⁻¹
same,inhibition of SEB-mediated induction of IFN-γ,[6],only partially
same,inhibition of SEB-mediated induction of IL-2,[6],only partially
same,inhibition of SEB-mediated induction of TNF-α,[6],only partially
same,kon,[10],4080 M⁻¹ s⁻¹
same,koff,[10],0.0277 s⁻¹
[dA]MLKIQAY[dA] [D-Ala-pB2-5],inhibition of SEB-mediated induction of IFN-γ,[6],failed to inhibit
[dA]DSDSWTLR[dA] [D-Ala-pB2-6],blocking of binding of SEB to cell-surface CD28,[1],capable of blocking
same,survival of SEB challenge (mice surviving/group),[4]; n=5,5/5
same,inhibition of binding of SEB to cells expressing B7-2,[2],effectively blocked
same,effect on SEB-mediated induction of IL-10,[6],resistant
same,inhibition of SEB-mediated induction of IFN-γ,[6],strongly inhibitory
same,inhibition of SEB-mediated induction of IL-2,[6],inhibited
same,inhibition of SEB-mediated induction of TNF-α,[6],inhibited
same,attenuation of LPS-mediated induction of TNF-α,[7],sensitive to attenuation; also recorded: reduced
"HVKGKHLCP [p1TA, reference compound]",blocking of binding of SEB to cell-surface CD28,[1],capable of blocking
same,inhibition of binding of SEB to cells expressing B7-2,[2],equally inhibited
same,blocking of binding of SEB to cell-surface CD28,[3],abrogated
MGRTSFDSDS [pB2-7],attenuation of IFN-γ expression induced by αCD3/αCD28,[5],significant attenuation
same,attenuation of TNF-α expression induced by αCD3/αCD28,[5],significant attenuation
same,inhibition of SEB-mediated induction of IFN-γ,[6],inhibited
same,inhibition of SEB-mediated induction of IL-2,[6],inhibited
same,inhibition of SEB-mediated induction of IL-10,[6],did not inhibit
same,inhibition of SEB-mediated induction of TNF-α,[6],inhibited
CC(C)C[C@H](NC(=O)[C@@H](NC(=O)[C@H](Cc1c[nH]c2ccccc12)NC(=O)[C@H](CO)NC(=O)[C@H](CC(=O)O)NC(=O)[C@H](CO)NC(=O)[C@@H](N)CC(=O)O)[C@@H](C)O)C(=O)N[C@@H](CCCNC(=N)N)C(=O)O [pB2-6] (H-DSDSWTLR-OH; N-terminus and C-terminus assumed),"Ka (1/Ms), association rate",[8],"1,590 1/Ms"
same,pKd,[8],5.75
same,"Kd (1/s), dissociation rate",[8],0.00286 s⁻¹
same,kon,[9],491 M⁻¹ s⁻¹
same,koff,[9],0.0019 s⁻¹
same,inhibition of SEB-mediated induction of IFN-γ,[6],only partially
same,inhibition of SEB-mediated induction of IL-2,[6],only partially
same,inhibition of SEB-mediated induction of TNF-α,[6],only partially
same,kon,[10],2530 M⁻¹ s⁻¹
same,koff,[10],0.00304 s⁻¹
[dA]DLPCQFANSQN[dA] [D-Ala-pB2-2],inhibition of binding of SEB to cells expressing B7-2,[2],did not inhibit binding
same,inhibition of SEB-mediated induction of IFN-γ,[6],failed to inhibit
[dA]MGRTSFDSDS[dA] [D-Ala-pB2-7],blocking of binding of SEB to cell-surface CD28,[1],capable of blocking
same,survival of SEB challenge (mice surviving/group),[4]; n=6,protected and 6/6
same,induction of an IFN-γ response by the peptide alone,[11],at neither concentration
same,inhibition of induction of IFN-γ by αCD3,[11],did not inhibit
same,inhibition of binding of SEB to cells expressing B7-2,[2],likewise blocked
same,attenuation of LPS-mediated induction of TNF-α,[7],reduced
